Experimental data from patent US20240307500A1, “SUSTAINED RELEASE FORMULATION COMPOSITION COMPRISING SEMAGLUTIDE OR PHARMACEUTICALLY ACCEPTABLE SALT THEREOF” (PEPTRON, INC., priority 2021, published 2024).

System: SD rats
Test: Oral glucose tolerance test (OGTT), hypoglycemic effects after single SC injection
Type: in vivo
Details: single SC 0.123 mpk semaglutide
Procedure: An oral glucose tolerance test (OGTT) was performed to confirm hypoglycemic effects of the sustained-release microspheres including semaglutide of the present invention. First, the experiment was conducted by dividing 8-week-old SD rats (18 rats; 6 rats in each group) into 3 groups. It was divided into a negative control group (Control), a positive control group (API) and Example 3 formulation administration group (PT403)), wherein the positive control group (API) was subcutaneously injected once with 0.123 mpk of semaglutide, and the Example 3 formulation administration group (PT403) was injected with the Example 3 formulation subcutaneously with 4 mpk.
After drug administration, total 5 OGTTs (Days 1, 7, 16, 21 and 28) were performed, and 2 g/kg of glucose was orally administered to SD rats fasted for 18 hours. Immediately after glucose administration, and after 15, 30, 60, 90, 120, and 180 minutes, blood was collected from the tail to measure blood glucose.

Substance: N^6,26-{18-[N-(17-carboxyheptadecanoyl)-L-γ-glutamyl]-10-oxo-3, 6, 12, 15-tetraoxa-9, 18-diazaoctadecanoyl}-[8-(2-amino-2-propanoic acid), 34-L-arginine] human glucan-like peptide 1 (7-37) [API]
- hypoglycemic effects (in words): returned to normal on the 7th day
